Columns and labels:
[1] = test system: MES-SA uterine sarcoma line; test: MTT-based cytotoxicity assay, MES-SA; assay type: cell-based, human; conditions: Homo sapiens, MES-SA, read-out: IC50 MESSA (Hs)
Source text: (§1) A second evaluation of the cytotoxicity of the acid labile, lipophilic molecular conjugates was undertaken.
(§2) These lines included a uterine sarcoma line, MES-SA, and its doxorubicin-resistant subline, MES-SA/Dx5. See W. G. Harker, F. R MacKintosh, and B. I. Sikic. Development and characterization of a human sarcoma cell line, MES-SA, sensitive to multiple drugs. Cancer Research 43: 4943-4950 (1983); W. G. Harker and B. I. Sikic. Multidrug (pleiotropic) resistance in doxorubicin-selected variants of the human sarcoma cell line MES-SA. Cancer Research 45: 4091 4096 (1985).
(§3) MES-SA/Dx5 cells express high levels of ABCB1 (MDR1) mRNA and its gene product, the P-glycoprotein. MES-SA and MES-SA/Dx5 were purchased from the American Type Culture Collection (ATCC, Manassas, Va.).

[2] = test system: MES-SA/Dx5 doxorubicin-resistant subline (MDR+); test: cells; assay type: cell-based, human; conditions: for IC50: Homo sapiens, MES-SA/Dx5, read-out: IC50 MESSA/Dx5 (MDR + Hs); for Degree of resistance (MESSA/Dx5): IC50 of the resistant line divided by IC50 of sensitive MES-SA cells
Source text: as §1, §2, §3

[3] = Stability in mouse plasma at 37° C.; assay type: in vitro ADME
Description: (§4) The stability of the acid labile, lipophilic molecular conjugates to hydrolysis in plasma was evaluated to determine their potential to release the active cancer chemotherapeutic agents into systemic circulation and thereby cause general off target toxicity (“side effects”). The conjugates were incubated with plasma of mouse, rat and human origin.
(§5) HPLC grade Methanol from Fisher (Fair lawn, NJ, USA). Part No: A452-4 (074833). HPLC grade Water from Fisher (Fair lawn, NJ, USA). Part No: W5-4 (073352). Drug-free mouse, rat and human plasmas were purchased from Innovative Research Inc. (Southfield, Mich., USA). LIPOSYN® I.V. (30% soybean oil and egg yolk phospholipids, Abbott Laboratories) Fat Emulsion from Hospira, Inc. (Lake Forest, Ill.).
(§6) Each drug (ART 198, ART 273, ART 488 and ART 489) was prepared in triplicate in mouse, rat and human plasma individually at […] concentration and vortexed for 1 minute and placed in a water bath at 37° C. at a shake rate of 75 per minute. Samples were drawn at time points of 0, 15, 30, 45, 60, 75, 90, 105, 120, 135, 150, 165, 180, 210, 240, 300, 360 and 480 minutes.
(§7) Chromatographic separation of the compounds was performed on a Waters Acquity UPLC™ using a BEH C18 column (1.7 μm, 2.1×50 mm). The mobile phase consisted of Methanol: 0.1% Formic acid (80:20). The flow rate was 0.3 ml/min; the sample injection volume was 5 μL, resulting in a 3 minute run time.
(§8) The MS instrumentation consisted of a Waters Micromass Quattro Micro™ triple-quadrupole system (Manchester, UK). The MS system was controlled by a 4.0 version of MassLynx software. Ionization was performed in the positive electrospray ionization mode. MS/MS conditions were the following: capillary voltage 3.02 kV; cone voltage 50 v; extractor voltage 5 v; and RF lens voltage 0.5 v. The source and desolvation temperatures were 100° C. and 400° C. respectively, and the desolvation and cone gas flow were 400 and 30 L/hr, respectively.
(§9) The selected mass-to-charge (m/z) ratio transitions of the ART 198 used in the selected ion monitoring (SIM) were: for ART 198, 617 (M+K)^+, for ART 273, 589 (M+K)^+, for ART 488, 913 (M+Na)^+, and for ART 489, 957 (M+Na)^+. The dwell time was set at 200 msec. MS conditions were optimized using direct infusion of standard solutions prepared in methanol and delivered by a syringe pump at a flow rate of 20 μL/min.
(§10) Samples of 100 μL were collected at time points of 0, 15, 30, 45, 60, 75, 90, 105, 120, 135, 150, 165, 180, 210, 240, 300, 360 and 480 minutes respectively and the reaction was terminated with methanol. In a separate set of experiments the acid labile, lipophilic molecular conjugates were dissolved in a small amount of ethanol and diluted into a lipid emulsion (Liposyn®) and added to mouse and human plasma before incubation and the hydrolysis of the conjugates was similarly measured. Collected plasma samples of 100 μL containing drug were placed in separate Eppendorf micro centrifuge tubes for processing. Methanol (200 μL) was added to extract the drug using the protein precipitation technique. The micro tubes were then vortex mixed for 10 minutes and centrifuged for 15 minutes at a speed of 10,000 rpm (Eppendorf 5415C centrifuge). The supernatant was collected and filtered using a 0.45 μm filter (Waters 13 mm GHP 0.45 μm) before analysis.
(§11) The weighted linear least-squares (1/x) regression was used as the mathematical model. The coefficient (r) for the compounds ranged from 0.9925 to 0.9999. The calibration range was selected according to the concentrations anticipated in the samples to be determined.
(§12) Samples were collected at various times and the percent remaining of the acid labile, lipophilic molecular conjugate of the cancer chemotherapeutic agent was determined along with the percent of the chemotherapeutic agent released from the hydrolysis of the conjugate.

[4] = Stability in human plasma at 37° C.; assay type: in vitro ADME
Description: as §4, §5, §6, §7, §8, §9, §10, §11, §12

[5] = Estimation of maximum tolerated dose (MTD) in the mouse; conditions: in vivo, iv, mice, in lipid emulsion (INTRALIPID), survival for 30 day observation period
Description: Stock solutions of ART 198 and 273 and their respective acid labile, lipophilic molecular conjugates (ART 489 and ART 488, respectively) were prepared in ethanol and then diluted into a lipid emulsion (INTRALIPID®, 20% Soybean Oil, 1.2% egg yolk phospholipids, 2.25% glycerin and water) and injected intravenously into mice at various doses in milligrams per kilogram. The animals were observed daily for signs of toxicity and/or death for a period of 30 days. The MTD was defined as survival of the dosed mice for the full 30 day observation period.

Compound | IC50 [1] [nM] | IC50 [2] [nM] | Degree of resistance (MESSA/Dx5) [2] | percent remaining of initial drug ([3]; 0 min) [%] | percent remaining of initial drug ([3]; 15 min) [%] | percent remaining of initial drug ([3]; 30 min) [%] | percent remaining of initial drug ([3]; 45 min) [%] | percent remaining of initial drug ([3]; 60 min) [%] | percent remaining of initial drug ([3]; 75 min) [%] | percent remaining of initial drug ([3]; 90 min) [%] | percent remaining of initial drug ([3]; 105 min) [%] | percent remaining of initial drug ([3]; 120 min) [%] | percent remaining of initial drug ([3]; 135 min) [%] | percent remaining of initial drug ([3]; 150 min) [%] | percent remaining of initial drug ([3]; 165 min) [%] | percent remaining of initial drug ([3]; 180 min) [%] | percent remaining of initial drug ([3]; 210 min) [%] | percent remaining of initial drug ([3]; 240 min) [%] | percent remaining of initial drug ([3]; 300 min) [%] | percent remaining of initial drug ([3]; 360 min) [%] | other results
COC(=O)[C@@]12OC[C@]34[C@H]([C@@H](O)[C@@H]1O)[C@@]1(C)CC(=O)C(O)=C(C)[C@@H]1C[C@H]3OC(=O)C(OC(=O)CC1(O)CCCCC1)[C@@H]24 (stereo partly drawn) [ART 198] | 47.5 ± 11 | 376 ± 110 | 7.9 ± 0.6 | 100 | 96.8 | 94.0 | 85.5 | 82.0 | 72.6 | 66.9 | 63.2 | 59.2 | 57.4 | 51.9 | 46.2 | 43.0 | 39.3 | 35.4 | 32.4 | 28.8 | percent remaining of initial drug ([4]; 0 min): 100%; percent remaining of initial drug ([4]; 15 min): 99.3%; percent remaining of initial drug ([4]; 30 min): 99.1%; percent remaining of initial drug ([4]; 45 min): 94.9%; percent remaining of initial drug ([4]; 60 min): 94.6%; percent remaining of initial drug ([4]; 75 min): 93.1%; percent remaining of initial drug ([4]; 90 min): 89.9%; percent remaining of initial drug ([4]; 105 min): 87.0%; percent remaining of initial drug ([4]; 120 min): 68.5%; percent remaining of initial drug ([4]; 135 min): 66.4%; percent remaining of initial drug ([4]; 150 min): 61.1%; percent remaining of initial drug ([4]; 165 min): 59.6%; percent remaining of initial drug ([4]; 180 min): 48.6%; percent remaining of initial drug ([4]; 210 min): 47.6%; percent remaining of initial drug ([4]; 240 min): 46.0%; percent remaining of initial drug ([4]; 300 min): 44.4%; percent remaining of initial drug ([4]; 360 min): 39.6%; percent remaining of initial drug ([4]; 480 min): 34.2%; MTD at 30 days [5]: 4 mg/kg
CCCCCCCCCCCCCCCC1OCC(COC(=O)O[C@@H]2C(=O)C=C(C)[C@@H]3C[C@H]4OC(=O)C(OC(=O)CC(O)(C(C)C)C(C)C)C5[C@@H](C)[C@@H](O)[C@@]6(O)OC[C@@]54C6[C@@]23C)O1 (stereo partly drawn) [ART 488] | 1.5 ± 0.7 | 7 ± 5.7 | 4.3 ± 1.8 | 100 | 91.2 | 85.7 | 81.3 | 75.0 | 73.2 | 65.2 | 58.8 | 56.4 | 56.2 | 55.0 | 53.7 | 53.7 | 52.4 | 50.3 | 48.2 | 45.6 | percent remaining of initial drug ([4]; 0 min): 100%; percent remaining of initial drug ([4]; 15 min): 90.8%; percent remaining of initial drug ([4]; 30 min): 89.1%; percent remaining of initial drug ([4]; 45 min): 87.8%; percent remaining of initial drug ([4]; 60 min): 87.9%; percent remaining of initial drug ([4]; 75 min): 87.9%; percent remaining of initial drug ([4]; 90 min): 87.1%; percent remaining of initial drug ([4]; 105 min): 86.2%; percent remaining of initial drug ([4]; 120 min): 85.3%; percent remaining of initial drug ([4]; 135 min): 84.0%; percent remaining of initial drug ([4]; 150 min): 82.7%; percent remaining of initial drug ([4]; 165 min): 81.1%; percent remaining of initial drug ([4]; 180 min): 78.6%; percent remaining of initial drug ([4]; 210 min): 78.1%; percent remaining of initial drug ([4]; 240 min): 76.5%; percent remaining of initial drug ([4]; 300 min): 59.3%; percent remaining of initial drug ([4]; 360 min): 59.8%; percent remaining of initial drug ([4]; 480 min): 43.6%; MTD at 30 days [5]: 4 mg/kg
CCCCCCCCCCCCCCCC1OCC(COC(=O)OC2=C(C)[C@@H]3C[C@H]4OC(=O)C(OC(=O)CC5(O)CCCCC5)[C@H]5[C@]6(C(=O)OC)OC[C@]45[C@H]([C@@H](O)[C@@H]6O)[C@@]3(C)CC2=O)O1 (stereo partly drawn) [ART 489] | 5.5 ± 3.5 | 17 ± 5.7 | 4.3 ± 3.8 | 100 | 95.7 | 88.6 | 84.8 | 79.2 | 78.1 | 70.1 | 68.0 | 64.1 | 63.2 | 59.4 | 54.7 | 51.6 | 50.3 | 47.5 | 41.1 | 38.1 | percent remaining of initial drug ([4]; 0 min): 100%; percent remaining of initial drug ([4]; 15 min): 99.3%; percent remaining of initial drug ([4]; 30 min): 98.8%; percent remaining of initial drug ([4]; 45 min): 98.4%; percent remaining of initial drug ([4]; 60 min): 97.4%; percent remaining of initial drug ([4]; 75 min): 94.6%; percent remaining of initial drug ([4]; 90 min): 93.7%; percent remaining of initial drug ([4]; 105 min): 93.0%; percent remaining of initial drug ([4]; 120 min): 91.9%; percent remaining of initial drug ([4]; 135 min): 91.7%; percent remaining of initial drug ([4]; 150 min): 90.9%; percent remaining of initial drug ([4]; 165 min): 90.4%; percent remaining of initial drug ([4]; 180 min): 90.1%; percent remaining of initial drug ([4]; 210 min): 89.0%; percent remaining of initial drug ([4]; 240 min): 86.7%; percent remaining of initial drug ([4]; 300 min): 84.1%; percent remaining of initial drug ([4]; 360 min): 78.7%; percent remaining of initial drug ([4]; 480 min): 65.9%; MTD at 30 days [5]: 3.1 mg/kg

Reference: patent publication US10172957B2, “Acid-labile lipophilic prodrugs of cancer chemotherapeutic agents” (priority 2011, dated 2019)
